Values quoted from earlier work, collected in article doi:10.1101/2025.09.30.679517v1 (bioRxiv, 2025).

Conditions: human, in vivo, po

Q: With `COc1ccc2c(c1)[C@]13CCCC[C@@H]1[C@H](C2)N(C)CC3` [dextromethorphan] as the molecule, how does the primary endpoints read?
A: reached all primary endpoints

Q: What about the tolerability of the same molecule?
A: well-tolerated by patients
